From ChEMBL document CHEMBL1201862, “PubChem BioAssay data set” (2004)
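Tested at 5 concentrations; 48 h exposure; 96-well plates; endpoints linearly interpolated, else capped at highest concentration. GI50: concentration for 50% inhibition of growth.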 The source made the active and inactive calls. Cut-off read from the data, not from the text of the source: active = GI50 up to about 1.1 µM and inactive = higher.

Assays:
Test in all cases: inhibition of tumour cell growth, NCI panel, 48 h
CAKI-1 = system: CAKI-1
SK-MEL-5 = system: SK-MEL-5
OVCAR-5 = system: OVCAR-5
RPMI-8226 = system: RPMI-8226
CCRF-CEM = system: CCRF-CEM
HOP-62 = system: HOP-62
UACC-62 = system: UACC-62
IGROV-1 = system: IGROV-1
SW-620 = system: SW-620
OVCAR-4 = system: OVCAR-4
NCI-H460 = system: NCI-H460
NCI/ADR-RES = system: NCI/ADR-RES
A549 = system: A549
Malme-3M = system: Malme-3M
K562 = system: K562
SK-OV-3 = system: SK-OV-3
RXF 393 = system: RXF 393
SR = system: SR
SK-MEL-2 = system: SK-MEL-2
U-251 = system: U-251
T47D = system: T47D
HOP-92 = system: HOP-92
NCI-H23 = system: NCI-H23
MCF7 = system: MCF7
HL-60 = system: HL-60
MOLT-4 = system: MOLT-4
COLO 205 = system: COLO 205
SF-268 = system: SF-268
ACHN = system: ACHN
M14 = system: M14
MDA-MB-435 = system: MDA-MB-435
SNB-75 = system: SNB-75
SK-MEL-28 = system: SK-MEL-28
HCT-15 = system: HCT-15
UACC-257 = system: UACC-257
SNB-19 = system: SNB-19
NCI-H522 = system: NCI-H522
SF-295 = system: SF-295
HT-29 = system: HT-29
MDA-MB-231 = system: MDA-MB-231
A498 = system: A498
UO-31 = system: UO-31
SN12C = system: SN12C
KM12 = system: KM12
786-0 = system: 786-0
DU-145 = system: DU-145
LOX IMVI = system: LOX IMVI
OVCAR-8 = system: OVCAR-8
Hs-578T = system: Hs-578T
OVCAR-3 = system: OVCAR-3
HCC 2998 = system: HCC 2998
EKVX = system: EKVX
PC-3 = system: PC-3
TK-10 = system: TK-10
SF-539 = system: SF-539
HCT-116 = system: HCT-116
MDA-N = system: MDA-N
NCI-H226 = system: NCI-H226

CCN1C(=O)CS/C1=N/NC(=O)C(O)(c1ccccc1)C1C=CC=CC1 (stereo unspecified)
GI50 (CAKI-1): > 10 µM (inactive) | GI50 (SK-MEL-5): > 10 µM (inactive) | GI50 (OVCAR-5): > 10 µM (inactive) | GI50 (RPMI-8226): > 10 µM (inactive) | GI50 (CCRF-CEM): > 10 µM (inactive) | GI50 (HOP-62): > 10 µM (inactive) | GI50 (UACC-62): > 10 µM (inactive) | GI50 (IGROV-1): > 10 µM (inactive) | GI50 (SW-620): > 10 µM (inactive) | GI50 (OVCAR-4): > 10 µM (inactive) | GI50 (NCI-H460): > 10 µM (inactive) | GI50 (NCI/ADR-RES): > 10 µM (inactive) | GI50 (A549): > 10 µM (inactive) | GI50 (Malme-3M): > 10 µM (inactive) | GI50 (K562): > 10 µM (inactive) | GI50 (SK-OV-3): > 10 µM (inactive) | GI50 (RXF 393): > 10 µM (inactive) | GI50 (SR): > 10 µM (inactive) | GI50 (SK-MEL-2): > 10 µM (inactive) | GI50 (U-251): > 10 µM (inactive) | GI50 (T47D): > 10 µM (inactive) | GI50 (HOP-92): > 10 µM (inactive) | GI50 (NCI-H23): > 10 µM (inactive) | GI50 (MCF7): > 10 µM (inactive) | GI50 (HL-60): > 10 µM (inactive) | GI50 (MOLT-4): > 10 µM (inactive) | GI50 (COLO 205): > 10 µM (inactive) | GI50 (SF-268): > 10 µM (inactive) | GI50 (ACHN): > 10 µM (inactive) | GI50 (M14): > 10 µM (inactive) | GI50 (MDA-MB-435): > 10 µM (inactive) | GI50 (SNB-75): > 10 µM (inactive) | GI50 (SK-MEL-28): > 10 µM (inactive)

CC1(C)C[C@H]2C3=CC[C@@H]4[C@@]5(C)CC[C@H](O)C(C)(C)[C@@H]5CC[C@@]4(C)[C@]3(C)C[C@@H](O)[C@@]23C[C@@H]1OC3=O
GI50 (CAKI-1): > 100 µM (inactive) | GI50 (HCT-15): > 100 µM | GI50 (SK-MEL-5): 55.2 µM (inactive) | GI50 (UACC-257): > 100 µM (inactive) | GI50 (OVCAR-5): > 100 µM (inactive) | GI50 (RPMI-8226): 65.5 µM (inactive) | GI50 (SNB-19): > 100 µM (inactive) | GI50 (NCI-H522): 56.5 µM (inactive) | GI50 (SF-295): 74.6 µM (inactive) | GI50 (CCRF-CEM): > 100 µM (inactive) | GI50 (HOP-62): > 100 µM (inactive) | GI50 (HT-29): 50.2 µM (inactive) | GI50 (MDA-MB-231): > 100 µM (inactive) | GI50 (UACC-62): > 100 µM (inactive) | GI50 (A498): > 100 µM (inactive) | GI50 (IGROV-1): > 100 µM (inactive) | GI50 (SW-620): > 100 µM (inactive) | GI50 (UO-31): > 100 µM (inactive) | GI50 (OVCAR-4): 37.2 µM (inactive) | GI50 (SN12C): > 100 µM (inactive) | GI50 (KM12): 70.3 µM (inactive) | GI50 (NCI-H460): 70.3 µM (inactive) | GI50 (786-0): > 100 µM (inactive) | GI50 (DU-145): > 100 µM (inactive) | GI50 (NCI/ADR-RES): 72.4 µM (inactive) | GI50 (LOX IMVI): > 100 µM (inactive) | GI50 (A549): 72.9 µM (inactive) | GI50 (Malme-3M): > 100 µM (inactive) | GI50 (OVCAR-8): > 100 µM (inactive) | GI50 (K562): 97.1 µM (inactive) | GI50 (Hs-578T): > 100 µM (inactive) | GI50 (SK-OV-3): > 100 µM (inactive) | GI50 (SR): > 100 µM (inactive) | GI50 (SK-MEL-2): > 100 µM (inactive) | GI50 (U-251): > 100 µM (inactive) | GI50 (T47D): 56.6 µM (inactive) | GI50 (HOP-92): > 100 µM (inactive) | GI50 (NCI-H23): > 100 µM (inactive) | GI50 (MCF7): 59.2 µM (inactive) | GI50 (HL-60): 37.1 µM (inactive) | GI50 (MOLT-4): 49.2 µM (inactive) | GI50 (COLO 205): 44.8 µM (inactive) | GI50 (OVCAR-3): > 100 µM (inactive) | GI50 (SF-268): > 100 µM (inactive) | GI50 (HCC 2998): 96.8 µM (inactive) | GI50 (EKVX): > 100 µM (inactive) | GI50 (PC-3): 68.1 µM (inactive) | GI50 (TK-10): > 100 µM (inactive) | GI50 (ACHN): > 100 µM (inactive) | GI50 (SF-539): > 100 µM (inactive) | GI50 (M14): > 100 µM (inactive) | GI50 (MDA-MB-435): > 100 µM (inactive) | GI50 (HCT-116): 74 µM (inactive) | GI50 (SNB-75): > 100 µM (inactive) | GI50 (SK-MEL-28): > 100 µM (inactive)

N#C/N=C(/N)c1sc2nc3c(c(-c4ccc(Br)cc4)c2c1N)CCCC3
GI50 (CAKI-1): 14.5 µM (inactive) | GI50 (HCT-15): 10.2 µM | GI50 (SK-MEL-5): 4.37 µM (inactive) | GI50 (UACC-257): 28.5 µM (inactive) | GI50 (OVCAR-5): 34.3 µM (inactive) | GI50 (MDA-N): 3.42 µM (inactive) | GI50 (RPMI-8226): 17.1 µM (inactive) | GI50 (SNB-19): 33.4 µM (inactive) | GI50 (SF-295): 11.1 µM (inactive) | GI50 (CCRF-CEM): 9.84 µM (inactive) | GI50 (HT-29): 18.5 µM (inactive) | GI50 (MDA-MB-231): 20.6 µM (inactive) | GI50 (UACC-62): 13.9 µM (inactive) | GI50 (A498): 16.1 µM (inactive) | GI50 (SW-620): 43.7 µM (inactive) | GI50 (UO-31): 19.9 µM (inactive) | GI50 (OVCAR-4): 3.21 µM (inactive) | GI50 (SN12C): 21.5 µM (inactive) | GI50 (KM12): 21.3 µM (inactive) | GI50 (NCI-H460): 21.1 µM (inactive) | GI50 (786-0): 15.7 µM (inactive) | GI50 (DU-145): 21 µM (inactive) | GI50 (NCI/ADR-RES): 21.4 µM (inactive) | GI50 (LOX IMVI): 7.93 µM (inactive) | GI50 (A549): 25.4 µM (inactive) | GI50 (OVCAR-8): 24.8 µM (inactive) | GI50 (K562): 9.23 µM (inactive) | GI50 (SK-OV-3): 28.1 µM (inactive) | GI50 (RXF 393): 17.7 µM (inactive) | GI50 (SR): 2.64 µM (inactive) | GI50 (SK-MEL-2): 13.2 µM (inactive) | GI50 (U-251): 24.2 µM (inactive) | GI50 (HOP-92): 21 µM (inactive) | GI50 (NCI-H23): 26.1 µM (inactive) | GI50 (MCF7): 18.5 µM (inactive) | GI50 (MOLT-4): 11.7 µM (inactive) | GI50 (COLO 205): 14.4 µM (inactive) | GI50 (SF-268): 35 µM (inactive) | GI50 (HCC 2998): 22.1 µM (inactive) | GI50 (PC-3): 11.6 µM (inactive) | GI50 (TK-10): 33.1 µM (inactive) | GI50 (ACHN): 20.6 µM (inactive) | GI50 (SF-539): 22.1 µM (inactive) | GI50 (M14): 21.8 µM (inactive) | GI50 (NCI-H226): 15.9 µM (inactive) | GI50 (MDA-MB-435): 2.73 µM (inactive) | GI50 (HCT-116): 9.02 µM (inactive) | GI50 (SK-MEL-28): 32.9 µM (inactive)
